Test results as given in patent publication US12018029B2, “Hexahydropyrrolo[3,4-c]pyrrole derivatives useful as LOX inhibitors” (THE INSTITUTE OF CANCER RESEARCH: ROYAL CANCER HOSPITAL, priority 2018, dated 2024).
pIC50: −log10 of the molar value.

What was measured:
[1] = target: T1, LOX (Mus musculus, UniProt P28301); test: LOX activity in cysts assay (roGFP2 LOX biosensor in MDCK cysts); type: cell-based; details: MDCK cysts; read-out: LOX biosensor IC50 (cyst)
T1 construct: Full length LOX cDNA was then PCR cloned into pEGFP-N1 (Clonetech), or biosensor vector proGFP2-N1; expressed in transfected cells; host or cells: MDCK cells grown as cysts on Matrigel
T1 sequence (P28301 163-411): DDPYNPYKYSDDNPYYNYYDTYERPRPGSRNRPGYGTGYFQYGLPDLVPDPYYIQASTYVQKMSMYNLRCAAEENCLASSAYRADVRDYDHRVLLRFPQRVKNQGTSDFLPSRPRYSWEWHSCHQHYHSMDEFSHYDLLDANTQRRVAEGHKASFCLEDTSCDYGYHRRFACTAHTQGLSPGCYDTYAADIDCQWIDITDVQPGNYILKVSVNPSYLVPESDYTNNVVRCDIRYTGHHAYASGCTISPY
Description: LOX Activity in Cysts Assay (Tang et al, 2017).
Cell Culture and Transfection
Cell lines were purchased from American Type Culture Collection (ATCC). […] MDCK cell lines were cultured in Dulbecco's Modified Eagle Medium (DMEM):F12 media supplemented with 10% foetal bovine serum (FBS) and 1% Penicillin Streptomycin solution (Pen Strep). Cells were incubated at 37° C. in a humidified incubator with 5% CO2. Lipofectamine 3000 or lentivirus was used to transfect MDCK cells with GFP constructs and cells were selected with G418 (Life Technologies) at 5 mg/ml. Cell culture reagents were purchased from Life Technologies.
To produce MDCK cysts, cells were cultured on Matrigel (Corning) with 2% Matrigel supplemented in DMEM with 10% FBS. Cysts were allowed to form for 10 days before subsequent studies.
Cloning of LOX Expression Constructs
Mouse LOX cDNA was purchased from OriGene. Full length LOX cDNA was then PCR cloned into pEGFP-N1 (Clonetech), or biosensor vector proGFP2-N1 (Hanson, 2004) using the following primers, […] (forward primer) and […] (reverse primer). For the insertion into pEGFP-N1 or proGFP2-N1, NheI and XhoI restriction sites were added to forward and reverse primers accordingly. Mutant LOX constructs were made using QuickChange II site-directed mutagenesis kit (Agilent Technologies) following manufacture's protocol using LOX-GFP as template. To generate, roGFP2 versions of LOX mutant constructs, LOX mutant cDNA was transferred from pEGFP-N1 to proGFP2-N1 using NheI and XhoI.
Confocal Imaging and Imaging Analysis
Photomicrographs of live MDCK cysts with a Leica TCS SP8 X confocal system were used to image the biosensor. The oxidised biosensor was excited using a 405 nm laser, while the reduced biosensor was excited with a 488 nm laser. Emission of the biosensor was recorded at 500 nm˜530 nm range using sequential scans. Ratio images were generated following a published protocol {Kardash, 2011 #376}. Note, while the published protocol generates YFP/CFP ratio images, we used it to generate Oxidised/Reduced (roGFP2 ratio) ratio images. The roGFP2 ratio at the basal surface of MDCK cysts was used to indicate LOX inhibition. LOX inhibitors were added 30 min prior to imaging.
The inhibition of LOX in cysts treated with LOX inhibitors compared to control (DMSO vehicle treated) cysts is shown in Table 2. For clarity, readout for DMSO treated cysts represents 0% inhibition (no inhibition) and readout for BAPN at 1 mM is used as 100% inhibition (full inhibition).

[2] = tested on: PDAC KPC TRP53 R172H (p53 mut) cells; test: PDAC allograft, primary tumour, R172H (p53 mut); type: in vivo, mouse; details: ratio of average tumour volume treated/vehicle; 200 mg/kg po qd; p<0.05
Description: (§1) All procedures involving animals were approved by the Animal Welfare and Ethical Review Body of the Institute of Cancer Research and Cancer Research UK Manchester Institute in accordance with National Home Office regulations under the Animals (Scientific Procedures) Act 1986 and according to the guidelines of the Committee of the National Cancer Research Institute Tumour size was determined by caliper measurements of tumour length, width and depth and volume was calculated as volume=0.5236×length×width×depth (mm).
PDAC allografts: CD1 nu/nu female mice at 6 weeks of age were inoculated subcutaneously in the right flank with 2×10^6 PDAC KPC TRP53 R172H (p53 mut) cells at 100 ul suspension per animal. […] Tumours and weights are measured twice weekly using calipers. […] Frozen samples kept at −80 degree centigrade until being analysed and the fixed samples stained according to the desired marker.
(§2) For therapeutic efficacy assessment, the ratio of average tumour volume between compound treated and vehicle control treated (T/C) is calculated. […] The efficacy of LOX inhibitors described in this invention, as measured by T/C in a pancreatic cancer model, a colorectal cancer model and a breast cancer model is shown in Table 3 and is significant (p<0.05) for all the data presented.

[3] = tested on: PDAC KP^flC (LOX H1 clone) cells; test: PDAC allograft, primary tumour, p53 wt, LOX o/e; type: in vivo, mouse; details: ratio of average tumour volume treated/vehicle; 200 mg/kg po qd; p<0.05
[4] = tested on: SW620 human colorectal carcinoma cells (mutant RAS); test: SW620 xenografts, primary tumour; type: in vivo; details: ratio of average tumour volume treated/vehicle; 200 mg/kg po qd; p<0.05
Description: as §1
SW620 xenografts: NCr mice were inoculated subcutaneously in the right flank with 5×10^6 SW620 cells at 100 ul suspension per animal. Groups of 7-8 mice were assigned to treatment following stratified allocation of tumour volumes with a median size of circa 100 mm^3. […] Tumours and weights are measured twice weekly using calipers. […] Frozen samples are kept at −80 degree centigrade until being analysed and the fixed samples stained according to the desired marker.
as §2

Compound: CCOc1ccc(N2C[C@H]3CN(C(=O)NCCO)C[C@H]3C2)cc1 [Example 1, cis-5-(4-Ethoxyphenyl)-N-(2-hydroxyethyl)hexahydropyrrolo[3,4-c]pyrrole-2(1H)-carboxamide]
- pIC50 [1]: > 6.25
- T/C, PDAC (mouse pancreatic carcinoma) primary tumour a) R172H (p53mut) [2]: a) 0.54
- T/C, PDAC (mouse pancreatic carcinoma) primary tumour b) p53wt, LOX o/e [3]: b) 0.35
- T/C, SW620 human colorectal carcinoma cells (mutant RAS) - primary tumour [4]: 0.55
